Key:
Type in all cases: physicochemical
[1] = Solution stability of ^90Y-B at −78° C., RCP by radio-HPLC; conditions: ^90Y-B prepared with GA
Method: (§1) The integrity of a radiopharmaceutical is measured by the radiochemical purity (RCP) of the radiolabeled compound using ITLC or more preferably HPLC. The advantage of using HPLC is that radio-impurities caused by radiolytic degradation can be separated from the radiopharmaceutical under optimized chromatographic conditions. […] The radiopharmaceutical compositions of this invention are effective in maintaining the long-term stability of samples that have been frozen, thawed, and re-tested periodically for 7 days.
(§2) The initial RCP of a radiopharmaceutical is largely dependent on radiolabeling conditions such as pH, heating temperature and time. Once a radiopharmaceutical is prepared in high yield, the stability of the radiopharmaceutical composition is measured by the` RCP change of the radiopharmaceutical over a certain period of time. For comparison purposes, sodium gentisate or sodium ascorbate was often used as the reference since they have been used in various radiopharmaceutical formulations.
(§3) HPLC method 2 used a HP-1100 HPLC system with a UV/visible detector (λ=220 nm), an IN-US radio-detector, and a Zorbax C18 column (4.6 mm×250 mm, 80 Å pore size). The flow rate was 1 mL/min with a gradient mobile phase starting from 92% solvent A (0.025 M ammonium acetate buffer, pH 6.8) and 8% solvent B (acetonitrile) at 0 min to 90% solvent A and 10% solvent B at 18 min, followed by an isocratic wash using 40% of solvent A and 60% solvent B from 19 to 25 min.
The ITLC method used Gelman Sciences silica-gel ITLC paper strips and 1:1 mixture of acetone and saline as eluant. By this method, the radiolabeled compounds migrate to the solvent front while [^90Y]/^177Lu]colloid and [^90Y]/^177Lu]acetate remain at the origin. […]
The 0.5 M ammonium acetate buffer (pH 8.0) was first degassed under vacuum for 1-2 min. COMPOUND B and gentisic acid (sodium salt, GA) were dissolved in the degassed buffer to give a concentration of 100 μg/mL for COMPOUND B and 20 mg/mL for GA. The resulting solution was immediately degassed under vacuum for another 1-2 min. To a clean sealed 5 mL vial was added 1.0 mL of the degassed 0.5 M ammonium acetate buffer (pH 8.0) containing 100 μg COMPOUND B and 10 mg GA. The solution was degassed again under vacuum. Upon addition of ˜20 μL of ^90YCl3 solution (˜20 mCi) in 0.05 N HCl, the reaction mixture was heated at 100° C. for 5 min. After cooling to room temperature, a sample of the resulting solution was diluted 20-fold with saline containing gentisate (10 mg/mL), and was then analyzed by HPLC (Method 2, injection volume=1-2 μL) and ITLC. […] To the solution above was added 0.5 mL of sodium ascorbate solution (40 mg/mL in 0.5 M ammonium acetate buffer, pH=7.4). The resulting mixture was then kept in a dry-ice box (−78° C.) for 7 days. Samples were analyzed at t=0, 3 and 7 days.
The 0.5 M ammonium acetate buffer (pH 8.0) was first degassed under vacuum for 1-2 min. COMPOUND B and gentisic acid (sodium salt, GA) were dissolved in the degassed buffer to give a concentration of 100 μg/mL for COMPOUND B and 20 mg/mL for GA. The resulting solution was immediately degassed under vacuum for another 1-2 min. To a clean sealed 5 mL vial was added 1.0 mL of the degassed 0.5 M ammonium acetate buffer (pH 8.0) containing 100 μg COMPOUND B and 10 mg GA. The solution was degassed again under vacuum. Upon addition of ˜20 μL of ^90YCl3 solution (˜20 mCi) in 0.05 N HCl, the reaction mixture was heated at 100° C. for 5 min. After cooling to room temperature, a sample of the resulting solution was diluted 20-fold with saline containing gentisate (10 mg/mL), and was then analyzed by HPLC (Method 2, injection volume=1-2 μL) and ITLC. […] To the solution above was added 0.5 mL of 2,3,4-trihydroxybenzoic acid solution (20 mg/mL in 0.5 M ammonium acetate buffer, pH=6.5). The resulting mixture was then kept in a dry-ice box (−78° C.) for 7 days. Samples were analyzed at t=0, 3 and 7 days. […]

[2] = Solution stability of ^177Lu-C at −78° C., RCP by radio-HPLC; conditions: ^177Lu-C prepared using 2 mg GA
Method: as §1, §2
as §3, with “method 3” for “method 2”, “from 90%” for “from 92%”, “and 10%” for “and 8%”, “to 88%” for “to 90%”, “and 12%” for “and 10%”
The ITLC method used Gelman Sciences silica-gel ITLC paper strips and 1:1 mixture of acetone and saline as eluant. By this method, the radiolabeled compounds migrate to the solvent front while [^90Y]/^177Lu]colloid and [^90Y]/^177Lu]acetate remain at the origin.
(§4) The 0.5 M ammonium acetate buffer (pH 8.0) was first degassed under vacuum for 1-2 min. COMPOUND C and gentisic acid (sodium salt, GA) were dissolved in the degassed buffer to give a concentration of 100 μg/mL for COMPOUND C and 2 mg/mL for GA. The resulting solution was immediately degassed under vacuum for another 1-2 min. To a clean sealed 5 mL vial was added 1.0 mL of the degassed 0.5 M ammonium acetate buffer (pH 8.0) containing 100 μg COMPOUND C and 2 mg GA. The solution was degassed again under vacuum. Upon addition of ˜20 μL of ^177LuCl3 solution (˜20 mCi) in 0.05 N HCl, the reaction mixture was heated at 100° C. for 5 min. After cooling to room temperature, a sample of the resulting solution was analyzed by HPLC (Method 3, injection volume=5 μL) and ITLC. […] To the solution above was added 0.5 mL of sodium ascorbate solution (40 mg/mL in 0.5 M ammonium acetate buffer, pH=7.4). The resulting mixture was then kept in a dry-ice box (−78° C.) for 7 days. Samples were analyzed at t=0, 3 and 7 days.
as §4, with “COMPOUND” for “The 0.5 M ammonium acetate buffer (pH 8.0) was first degassed under vacuum for 1-2 min. COMPOUND”, “1.0 μL” for “1.0 mL”, “of 2,3,4-THBA” for “of sodium ascorbate”, “solution (20” for “solution (40”
COMPOUND C and gentisic acid (sodium salt, GA) were dissolved in the degassed buffer to give a concentration of 100 μg/mL for COMPOUND C and 2 mg/mL for GA. The resulting solution was immediately degassed under vacuum for another 1-2 min. […]

[3] = as above; conditions: ^177Lu-C prepared using 2 mg GA, degassed, second stabilizer (20 mg AA, 20 mg DSA, 10 mg 2,3,4-THBA, 10 mg 3,4,5-THBA) added post-labeling
[4] = degassed, second stabilizer (20 mg AA, 20 mg DSA, 10 mg 2,3,4-THBA, 10 mg HABA) added post-labeling
[5] = second stabilizer added post-labeling, t = 0 to 7 days
[6] = degassed, second stabilizer (20 mg AA, 20 mg DSA, 10 mg 2,3,4-THBA, 10 mg 3,4,5-THBA) added post-labeling

RCP (%) t = 0 [1, 4]: 95.0%
RCP (%) t = 3 days [1, 4]: 93.9%
RCP (%) t = 7 days [1, 4]: 94.5%
RCP (%) change [1, 5]: 0.5%
RCP (%) t = 0 [2, 6]: 97.6%
RCP (%) t = 3 days [2, 6]: 97.5%
RCP (%) t = 7 days [2, 6]: 93.0%
RCP (%) change [2, 5]: 4.6%
RCP (%) t = 1 day [3]: 97.7%
Compound: O=C1O[C@H]([C@@H](O)CO)C([O-])=C1O.[Na+] [AA, sodium ascorbate, reference compound]

— patent publication US20020122768A1, “Stable radiopharmaceutical compositions and methods for preparation thereof” (priority 2000, published 2002)
